Reference: publication PMC10343472, “Cyclopentenylcytosine (CPE-C): In Vitro and In Vivo Evaluation as an Antiviral against Adenoviral Ocular Infections” (Molecules, 2023)
Read-outs that look alike come from different tables or passages of the source.

Experiments:
HAdV1 = test: plaque reduction assay in A549 cells, HAdV1; type: cell-based; conditions: Human adenovirus sp.
Description: (§1) The in vitro antiviral testing was done using a standard plaque reduction assay with A549 human lung carcinoma cells as previously described. The EC50s were determined using a Fitted Line Plot Regression analysis with Minitab Version 21 software. The EC50 is the effective concentration that inhibits plaque formation by 50%. The HAdV types tested represent the most common adenovirus serotypes that cause ocular infections (HAdV8, HAdV19/64, HAdV37 (EKC); HAdV3, HAdV4, HAdV7a (follicular conjunctivitis)) and serotypes that cause conjunctivitis and can replicate in the rabbit ocular model (HAdV1, HAdV2, HAdV5).
(§2) For the in vitro antiviral testing, clinical adenovirus isolates of types HAdV1, HAdV2, HAdV3, HAdV4, HAdV5, HAdV7a, HAdV8, and HAdV19/64 were anonymously collected from patients presenting with typical adenoviral conjunctivitis at the Charles T. Campbell Ophthalmic Microbiology Laboratory at the UPMC Eye Center, University of Pittsburgh, Pittsburgh, PA, USA. The isolates were retrieved from a frozen −80 °C retrospective clinical collection that was de-identified and stored for diagnostic test validations. The types of isolates were determined using serum neutralization. Recently, HAdV19 has been reclassified as HAdV64 [41]; however, for the purpose of this study, it was designated as HAdV19/64. No clinical isolates of HAdV37 were identified, therefore the ATCC (American Type Culture Collection, Manassas, VA, USA) reference strain of HAdV37 was used. The clinical isolates along with the ATCC HAdV37 reference strain were grown in A549 cell (CCL-185, ATCC) monolayers and stocks were prepared, aliquoted, and frozen at –80 °C. The titers of the stock viruses were determined as described in Section 4.7. The same clinical isolate of HAdV5 used for the in vitro antiviral testing was also used for the in vivo antiviral evaluation in the Ad5/NZW rabbit ocular replication model.
(§3) A549 human lung carcinoma cells were grown and maintained in Eagle’s MEM supplemented with 10% fetal bovine serum (Sigma Cell Culture Reagents, St. Louis, MO, USA). The A549 cell line was used to prepare the adenovirus stocks and for the determination of viral titers in the Ad5/NZW rabbit ocular replication model and in the in vitro plaque reduction assays.
(§4) Plaque reduction assays were performed 2–4 times using 24-well multiplates containing A549 monolayers. One plate per virus isolate per drug was used. The 24-well multiplates were inoculated with approximately 100 plaque-forming units (PFU) of HAdV per well. After a three-hour adsorption period, the inocula were removed from all wells. […] The plates were dried, and the number of plaques per well was counted using a dissecting microscope. […] The mean and standard deviation EC50 concentrations of 2–4 trials were then determined for each HAdV isolate. […]

HAdV2 = test: plaque reduction assay in A549 cells, HAdV2; type: cell-based; conditions: Human adenovirus sp.
Description: as §1, §2, §3, §4

HAdV3 = test: plaque reduction assay in A549 cells, HAdV3; type: cell-based; conditions: Human adenovirus sp.
Description: as §1, §2, §3, §4

HAdV4 = test: plaque reduction assay in A549 cells, HAdV4; type: cell-based; conditions: Human adenovirus sp.
Description: as §1, §2, §3, §4

HAdV5 = test: plaque reduction assay in A549 cells, HAdV5; type: cell-based; conditions: Human adenovirus sp.
Description: as §1, §2, §3, §4

HAdV7a = test: plaque reduction assay in A549 cells, HAdV7a; type: cell-based, Human adenovirus
Description: as §1, §2, §3
Plaque reduction assays were performed 2–4 times using 24-well multiplates containing A549 monolayers. One plate per virus isolate per drug was used. The 24-well multiplates were inoculated with approximately 100 plaque-forming units (PFU) of HAdV per well. After a three-hour adsorption period, the inocula were removed from all wells. One ml of overlay media with 0.5% methylcellulose containing 100, 10, 1.0, 0.1, 0.01, or 0.001 μg/mL of CPE-C or cidofovir was added to 3 wells each. To the remaining 6 wells, 1 mL of overlay media with 0.5% methylcellulose and without CPE-C or cidofovir was added. The plates were incubated at 37 °C in 5% CO2 until plaque formation was visible. At that time, the cells were fixed and stained with 0.5% gentian violet containing formalin. The plates were dried, and the number of plaques per well was counted using a dissecting microscope. […] The mean and standard deviation EC50 concentrations of 2–4 trials were then determined for each HAdV isolate. […]

HAdV19/64 = test: plaque reduction assay in A549 cells, HAdV19/64; type: cell-based; conditions: Human adenovirus sp.
Description: as §1, §2, §3, §4

HAdV37 = test: plaque reduction assay in A549 cells, HAdV37; type: cell-based; conditions: Human adenovirus sp.
Description: as §1, §2, §3, §4

[1] = system: nine adenovirus types that commonly infect the eye; test: plaque reduction assay, whole panel of ocular HAdV types; type: cell-based, Human adenovirus; conditions: for range of mean EC50 concentrations across the HAdV serotypes tested: highest vs lowest mean EC50; for EC50: unidentified adenovirus
Description: as §1, §2, §3
Plaque reduction assays were performed 2–4 times using 24-well multiplates containing A549 monolayers. One plate per virus isolate per drug was used. The 24-well multiplates were inoculated with approximately 100 plaque-forming units (PFU) of HAdV per well. After a three-hour adsorption period, the inocula were removed from all wells. One ml of overlay media with 0.5% methylcellulose containing 100, 10, 1.0, 0.1, 0.01, or 0.001 μg/mL of CPE-C or cidofovir was added to 3 wells each. To the remaining 6 wells, 1 mL of overlay media with 0.5% methylcellulose and without CPE-C or cidofovir was added. The plates were incubated at 37 °C in 5% CO2 until plaque formation was visible. At that time, the cells were fixed and stained with 0.5% gentian violet containing formalin. The plates were dried, and the number of plaques per well was counted using a dissecting microscope. The CPE-C and cidofovir EC50 concentrations (concentrations that inhibits plaque formation by 50%) for each virus isolate were determined using a Fitted Line Plot Regression analysis (Minitab Version 21, State College, PA) of the average number of plaques versus drug concentration. The mean and standard deviation EC50 concentrations of 2–4 trials were then determined for each HAdV isolate. The EC50 concentrations in μg/mL were then converted to μM using the GraphPad online Molarity Calculator (https://www.graphpad.com/quickcalcs/Molarityform.cfm (accessed on 12 June 2023)).

[2] = A549, HAdV1, converted from μg/mL
[3] = HAdV1 clinical isolate, A549 cells, mean ± SD of 2–4 trials
[4] = A549, HAdV2, converted from μg/mL
[5] = HAdV2 clinical isolate, A549 cells, mean ± SD of 2–4 trials
[6] = A549, HAdV3, converted from μg/mL
[7] = HAdV3 clinical isolate, A549 cells, mean ± SD of 2–4 trials
[8] = A549, HAdV4, converted from μg/mL
[9] = HAdV4 clinical isolate, A549 cells, mean ± SD of 2–4 trials
[10] = A549, HAdV5, converted from μg/mL
[11] = HAdV5 clinical isolate, A549 cells, mean ± SD of 2–4 trials
[12] = Human adenovirus sp., A549, HAdV7a clinical isolate, A549 cells, mean ± SD of 2–4 trials
[13] = Human adenovirus sp., A549, HAdV7a, converted from μg/mL
[14] = A549, HAdV19/64, converted from μg/mL
[15] = HAdV19/64 clinical isolate, A549 cells, mean ± SD of 2–4 trials
[16] = A549, HAdV37, converted from μg/mL
[17] = HAdV37 ATCC reference strain, A549 cells, mean ± SD of 2–4 trials

Q: With `Nc1ccn([C@@H]2C=C(CO)[C@@H](O)[C@H]2O)c(=O)n1` [CPE-C, Cyclopentenylcytosine] as the molecule, how does the EC50 (HAdV1; [2]) read?
A: The EC50 was 0.214 ± 0.027 µM.

Q: What about the EC50 (HAdV1; [3]) of the same molecule?
A: The EC50 was 0.051 ± 0.007 µg/mL.

Q: What about the EC50 (HAdV2; [4]) of the same molecule?
A: Its EC50 is 0.198 ± 0.101 µM.

Q: And the EC50 (HAdV2; [5])?
A: Its EC50 is 0.047 ± 0.024 µg/mL.

Q: What about the EC50 (HAdV3; [6]) of the same molecule?
A: Its EC50 is 0.165 ± 0.016 µM.

Q: And the EC50 (HAdV3; [7])?
A: The EC50 was 0.04 ± 0.004 µg/mL.

Q: And the EC50 (HAdV4; [8])?
A: Its EC50 is 0.134 ± 0.11 µM.

Q: What about the EC50 (HAdV4; [9]) of the same molecule?
A: The EC50 was 0.032 ± 0.026 µg/mL.

Q: And the EC50 (HAdV5; [10])?
A: Its EC50 is 0.126 ± 0.138 µM.

Q: What about the EC50 (HAdV5; [11]) of the same molecule?
A: Its EC50 is 0.03 ± 0.033 µg/mL.

Q: And the EC50 (HAdV7a; [12])?
A: The EC50 was 0.055 ± 0.026 µg/mL.

Q: And the EC50 (HAdV7a; [13])?
A: The EC50 was 0.194 ± 0.057 µM.

Q: And the EC50 (HAdV19/64; [14])?
A: The EC50 was 0.196 ± 0.118 µM.

Q: What about the EC50 (HAdV19/64; [15]) of the same molecule?
A: Its EC50 is 0.047 ± 0.028 µg/mL.

Q: What about the EC50 (HAdV37; [16]) of the same molecule?
A: Its EC50 is 0.202 ± 0.037 µM.

Q: What about the EC50 (HAdV37; [17]) of the same molecule?
A: Its EC50 is 0.048 ± 0.008 µg/mL.

Q: What about the “range of mean EC50 concentrations across the HAdV serotypes tested” value [1] of the same molecule?
A: Its value is 2 fold.

Q: What about the “EC50 concentrations lower for CPE-C compared to cidofovir” value ([1]; majority of the HAdV types) of the same molecule?
A: The value was “approximately 100 fold”.

Q: And the “EC50s across the panel of HAdV types” value ([1]; nine adenovirus types that commonly infect the eye)?
A: The value was < 0.06 µg/mL.

Q: What about the EC50 ([1]; read-out: EC50 concentrations across the panel of HAdV types, panel of HAdV types that commonly infect the eye) of the same molecule?
A: The EC50 was < 0.25 µM.

Q: What about the EC50 ([1]; read-out: EC50s across the panel of HAdV types, nine adenovirus types that commonly infect the eye) of the same molecule?
A: Its EC50 is 0.03 to 0.059 µg/mL.

Q: `Nc1ccn(C[C@@H](CO)OCP(=O)(O)O)c(=O)n1` [Cidofovir, cidofovir, reference compound] was tested. Which EC50 (HAdV1; [2]) did it give?
A: The EC50 was 18.9 ± 2.11 µM.

Q: And the EC50 (HAdV1; [3])?
A: The EC50 was 5.27 ± 0.588 µg/mL.

Q: And the EC50 (HAdV2; [4])?
A: The EC50 was 18.3 ± 1.47 µM.

Q: What about the EC50 (HAdV2; [5]) of the same molecule?
A: The EC50 was 5.11 ± 0.41 µg/mL.

Q: And the EC50 (HAdV3; [6])?
A: Its EC50 is 14.8 ± 3.26 µM.

Q: And the EC50 (HAdV3; [7])?
A: Its EC50 is 4.12 ± 0.91 µg/mL.

Q: What about the EC50 (HAdV4; [8]) of the same molecule?
A: Its EC50 is 16.5 ± 3.31 µM.

Q: And the EC50 (HAdV4; [9])?
A: Its EC50 is 4.61 ± 0.925 µg/mL.

Q: What about the EC50 (HAdV5; [10]) of the same molecule?
A: The EC50 was 17.6 ± 1.74 µM.

Q: And the EC50 (HAdV5; [11])?
A: Its EC50 is 4.92 ± 0.486 µg/mL.

Q: What about the EC50 (HAdV7a; HAdV7a, converted from μg/mL) of the same molecule?
A: Its EC50 is 19.2 ± 0.491 µM.

Q: And the EC50 (HAdV7a; [12])?
A: Its EC50 is 5.37 ± 0.137 µg/mL.

Q: What about the EC50 (HAdV7a; [13]) of the same molecule?
A: The EC50 was 19.2 ± 0.491 µM.

Q: And the EC50 (HAdV19/64; [14])?
A: Its EC50 is 17.5 ± 1.85 µM.

Q: What about the EC50 (HAdV19/64; [15]) of the same molecule?
A: The EC50 was 4.9 ± 0.517 µg/mL.

Q: What about the EC50 (HAdV37; [16]) of the same molecule?
A: Its EC50 is 17.2 ± 2.43 µM.

Q: And the EC50 (HAdV37; [17])?
A: The EC50 was 4.79 ± 0.678 µg/mL.

Q: And the “range of mean EC50 concentrations across the HAdV serotypes tested” value [1]?
A: Its value is 12.6 fold.

Q: What about the EC50 ([1]; read-out: EC50 concentrations for a majority of the HAdV serotypes, majority of the HAdV serotypes) of the same molecule?
A: Its EC50 is ~5 µg/mL.
